Laboratory results as given in patent publication US12076436B2, “Bacterial ferment of Lactobacillus species” (Symrise AG, priority 2021, dated 2024).

Key:
[1] = system: Interleukin-8 (IL8); assay: IL8 secretion by EpiDerm 3D reconstituted skin models after IL1a stimulation (ELISA); assay type: cell-based, human; conditions: supernatants; 72 h topical treatment, then 1 μg/ml IL1a approx. 24 h; triplicates; dexamethasone at 50 μM
Description: (§1) To assess the effect of the bacterial ferment according to the invention on the secretion levels of IL8, reconstituted 3D skin models (EpiDerm™, MatTek) were used. After a short acclimation phase (daily medium changes), the models were switched to hydrocortisone-free medium, and test compounds were added topically to the reconstituted models. 50 μM dexamethasone was used as positive control, PBS served as negative control in the experiment. After 72 h incubation at 37° C. 5% CO2, the 3D models were washed with PBS and subsequently, an inflammatory response was stimulated by addition of 1 μg/ml Ma in the medium for approx. 24 h. Supernatants were collected after this phase and the IL8 concentration in these supernatants was determined using an ELISA kit (Human […] DuoSet ELISA, R&D Systems). To assess potential toxic effects of the test compounds on the 3D models, a standard MTT assay was carried out to assess viability of the 3D models at the end of the experiment.

[2] = system: MatTek EpiDerm 3D reconstituted skin models; assay: MTT viability of the 3D skin models; assay type: cell-based, human; conditions: MTT assay at end of experiment; dexamethasone at 50 μM
Description: as §1

[3] = system: Lactobacillus cultures; assay: Reduction of Lactobacillus viability by treatment with lactic acid (plating of serial dilutions); assay type: cell-based

C[C@@H]1C[C@H]2[C@@H]3CCC4=CC(=O)C=C[C@]4(C)[C@@]3(F)[C@@H](O)C[C@]2(C)[C@@]1(O)C(=O)CO [Dexamethasone, dexamethasone]
IL-8 concentration [pg/ml] ± SEM [1]: 1225 ± 18.61 pg/mL | Viability (% vs stimulated control) [2]: 90 % vs stimulated control

CC(O)C(=O)O (stereo not shown) [Lactic Acid, lactic acid]
Lactobacillus count (log cfu/ml) ([3]; 2 % (w/v) lactic acid, 37° C., 12 h): 7.54 log cfu/ml | Lactobacillus count (log cfu/ml) ([3]; 2.8 % (w/v) lactic acid, 37° C., 12 h): 7.08 log cfu/ml | Lactobacillus count (log cfu/ml) ([3]; 3 % (w/v) lactic acid, 37° C., 12 h): 5.45 log cfu/ml | Lactobacillus count (log cfu/ml) ([3]; 3.4 % (w/v) lactic acid, 37° C., 12 h): 4.72 log cfu/ml | Lactobacillus count (log cfu/ml) ([3]; 3.6 % (w/v) lactic acid, 37° C., 12 h): 5.09 log cfu/ml | Lactobacillus count (log cfu/ml) ([3]; 4 % (w/v) lactic acid, 37° C., 12 h): 3.52 log cfu/ml | Lactobacillus count (log cfu/ml) ([3]; 4.4 % (w/v) lactic acid, 37° C., 12 h): 3.60 log cfu/ml | Lactobacillus count (log cfu/ml) ([3]; 4.8 % (w/v) lactic acid, 37° C., 12 h): 3.00 log cfu/ml | Lactobacillus count (log cfu/ml) ([3]; 5 % (w/v) lactic acid, 37° C., 12 h): 1.00 log cfu/ml | Lactobacillus count (log cfu/ml) ([3]; 5.4 % (w/v) lactic acid, 37° C., 12 h): 1.38 log cfu/ml | Lactobacillus count (log cfu/ml) ([3]; 6 % (w/v) lactic acid, 37° C., 12 h): 1.95 log cfu/ml | Lactobacillus count (log cfu/ml) ([3]; 6.8 % (w/v) lactic acid, 37° C., 12 h): 1.70 log cfu/ml | lactic acid concentration range of optimal reduction of Lactobacillus count ([3]; 37° C., 12 h): ca. 5 % (w/v) | reduction in bacterial count by short pH shock with lactic acid ([3]; step c of the method, bacterial ferment supernatant): at least 9 order
